Data reported in paper PMC5075699.
Values joined by “and” are separate entries in the source; they are usually repeats but may differ in a detail not shown here. Identical values can stand only once.

Assays:
nontransgenic mice = experiment: Pilot Morris water maze #1 (spatial learning and memory); details: for Distance / Latency: Fig 2A; for Crossing Frequency: Fig 2C
[1] = tested on: prion disease mouse models; details: in vivo, ip, 0.25 mg/kg; cited from earlier work
nontransgenic (NTG) mice = experiment: Morris water maze #2, nontransgenic (NTG) mice; details: for %Target Quadrant / Crossing Frequency / Latency to Target / Training Latency: ISRIB 2.5mpk in DMSO/PEG
[2] = 72-hour probe trial (Fig 2C), 0.25mpk, individual mice
[3] = ISRIB 0.1mpk, Trial 1, individual mice
[4] = ISRIB 0.1mpk, Trial 2, individual mice
[5] = ISRIB 0.1mpk, Trial 3, individual mice
[6] = ISRIB 0.1mpk, Trial 4, individual mice
[7] = ISRIB 0.25mpk, Trial 1, individual mice
[8] = ISRIB 0.25mpk, Trial 2, individual mice
[9] = ISRIB 0.25mpk, Trial 3, individual mice
[10] = Fig 4E, NTG mice, individual mice
[11] = Fig 4F, NTG mice, individual animals

SMILES: O=C(COc1ccc(Cl)cc1)NC1CCC(NC(=O)COc2ccc(Cl)cc2)CC1 (stereo not shown) [ISRIB]
- %Target Quadrant (percent time spent in target quadrant) (nontransgenic mice; [2]): 45.4798% and 27.066% and 23.0727% and 47.7537% and 35.4409% and 31.5031% and 40.9318% and 46.4781% and 25.5685% and 36.6057% and 27.898% and 43.3167% and 22.3516% and 17.7482% and 21.6861%
- Latency to Target (nontransgenic mice; [2]): 9.843 and 17.3507 and 7.741 and 43.2432 and 4.972 and 20.1201 and 23.7237 and 4.638 and 6.24 and 11.4448 and 27.027 and 19.4194
- latency to target and crossing frequency vs vehicle (nontransgenic mice; 72-hour probe trial, one-way ANOVA): no significant improvement
- Distance (nontransgenic mice; [3]): 2362.83 and 2250.62 and 2496.09 and 1947.39 and 1168.96 and 2236.97 and 2411.54 and 2035.59 and 1921.1 and 2456.98 and 2337.83 and 2068.76 and 2366.51 and 2250.12 and 2342.92
- Latency (nontransgenic mice; [3]): 120.12 and 115.716 and 120.153 (11×) and 70.7374 and 112.312
- Distance (nontransgenic mice; [4]): 2488.72 and 412.271 and 2629.01 and 582.153 and 2113.12 and 2245.93 and 2084.31 and 208.443 and 322.031 and 2551.61 and 1958.47 and 2254.18 and 2157.45 and 1870.02 and 1903.66
- Latency (nontransgenic mice; [4]): 120.153 (7×) and 20.1868 and 53.2199 and 101.501 and 119.653 and 16.016 and 18.5852 and 101.535 and 100.467
- Distance (nontransgenic mice; [5]): 96.0203 and 1493.55 and 655.096 and 2193.26 and 428.034 and 2346.49 and 668.274 and 682.153 and 2384.94 and 600.87 and 1974.12 and 1289.33 and 2210.56 and 216.348 and 165.502
- Latency (nontransgenic mice; [5]): 7.307 and 72.6059 and 29.1291 and 120.153 (6×) and 25.7925 and 43.31 and 33.8338 and 32.666 and 11.8785 and 10.01
- Distance (nontransgenic mice; [6]): 1924.82 and 804.911 and 451.376 and 688.986 and 824.577 and 691.966 and 1226.74 and 1849.83 and 378.165 and 840.629
- Latency (nontransgenic mice; [6]): 96.0961 and 35.7357 and 20.6873 and 46.6467 and 38.0714 and 35.4354 and 120.153 and 97.4308 and 17.4174 and 44.2776
- Crossing Frequency (nontransgenic mice; ISRIB 0.1mpk, individual mice): 1 and 2 and 5 and 0 and 4 and 3
- Distance (nontransgenic mice; [7]): 2065.19 and 2495.79 and 2100.99 and 2299.57 and 1083.65 and 2015.54 and 1762.54 and 1784.58 and 1973.36 and 2419.28 and 2296.21 and 1746.93 and 2593.71 and 2297.94 and 2156.55
- Latency (nontransgenic mice; [7]): 120.153 (10×) and 56.5566 and 93.994 and 110.677 and 97.7644 and 92.3257
- Distance (nontransgenic mice; [8]): 2252.57 and 966.538 and 2215.71 and 2563.77 and 445.101 and 2147.24 and 1156.33 and 1018.37 and 2302.03 and 2270.34 and 1964.61 and 2179.88 and 2576.82 and 1685.38 and 1279.26
- Latency (nontransgenic mice; [8]): 119.753 and 49.4828 and 119.686 and 120.153 (6×) and 23.4902 and 55.5555 and 58.6587 and 114.581 and 80.8141 and 66.8669
- Distance (nontransgenic mice; [9]): 2747.59 and 190.327 and 1538.1 and 2351.74 and 241.5 and 531.856 and 1005.53 and 471.756 and 1003.73 and 604.685 and 1640.73 and 351.494 and 2299.54 and 202.419 and 1735.08
- Latency (nontransgenic mice; [9]): 120.153 (5×) and 12.6126 and 98.365 and 13.9807 and 31.4314 and 77.5108 and 25.1251 and 47.047 and 26.9937 and 17.4174 and 12.5459
- Crossing Frequency (nontransgenic mice; ISRIB 0.25mpk, individual mice): 6 and 2 and 0 and 3 and 1 and 7
- learning rates to find the hidden platform (latency or distance) vs vehicle (nontransgenic mice; MWM #1 training, 0.1 and 0.25 mpk): No differences in learning rates
- extension of survival [1]: approximately 1 week
- MWM training latency NTG Trial*ISRIB (linear mixed effects regression model) (nontransgenic (NTG) mice; 0.25 mpk in 1% DMSO/saline, vs vehicle): −0.1 sec/day
- %Target Quadrant (nontransgenic (NTG) mice; [10]): 53.4979% and 33.8116% and 21.5771% and 31.9208% and 40.8186% and 33.2555% and 14.7926% and 38.7054% and 50.3837% and 29.8076% and 34.8126% and 37.4819%
- Crossing Frequency (nontransgenic (NTG) mice; [10]): 7 and 3 and 0 and 4 and 2 and 1 and 6
- Latency to Target (nontransgenic (NTG) mice; [10]): 12.9463 and 11.6116 and 60 and 7.741 and 3.4034 and 4.6046 and 17.8846 and 5.806 and 58.7921 and 9.409 and 18.6186
- %Target Quadrant (nontransgenic (NTG) mice; Fig 4F, NTG mice, individual mice): 51.4959% and 27.4719% and 32.1433% and 20.02% and 23.9128% and 54.4989% and 37.8156% and 28.8066% and 47.6032% and 24.024% and 39.8176%
- Crossing Frequency (nontransgenic (NTG) mice; [11]): 7 and 3 and 5 and 2 and 1
- Latency to Target (nontransgenic (NTG) mice; [11]): 10.7441 and 4.6046 and 20.3537 and 7.474 and 3.27 and 20.1535 and 5.6056 and 21.1545 and 23.6904 and 21.4214 and 20.287 and 19.2859
- Training Latency (nontransgenic (NTG) mice; NTG mice, Trial 8, individual mice (Fig 4A-D)): 2.936 and 11.4781 and 15.9493 and 10.5439 and 6.139 and 7.074 and 4.8048 and 33.3667 and 6.74 and 48.7821 and 3.871 and 75.7424
- Training Latency (nontransgenic (NTG) mice; NTG mice, Trial 9, individual mice (Fig 4A-D)): 45.6457 and 6.273 and 8.742 and 30.297 and 12.6793 and 5.739 and 57.0571 and 4.8048 and 11.8118 and 7.341 and 70.1368 and 5.138
- Training Latency (nontransgenic (NTG) mice; NTG mice, Trial 10, individual mice (Fig 4A-D)): 3.737 and 4.004 and 28.295 and 62.9963 and 3.67 and 21.6216 and 5.939 and 22.6226 and 8.542 and 19.4861 and 60 and 4.271
- Training Latency (nontransgenic (NTG) mice; NTG mice, Trial 11, individual mice (Fig 4A-D)): 31.7651 and 42.1088 and 14.281 and 24.7581 and 7.074 and 6.54 and 24.024 and 52.7861 and 11.6116 and 20.7541 and 39.5062 and 3.6036
- learning during the training trials (nontransgenic (NTG) mice; NTG mice, 0.25 or 2.5 mpk): did not observe an improvement in learning
- spatial memory treatment effects (nontransgenic (NTG) mice; NTG mice, 72 hour probe trial, 0.25 or 2.5 mpk): did not observe significantly positive treatment effects
